# Laboratory results from patent US7816410B2, “Pesticidal compositions” (priority 2003, dated 2010).
# Tests used:
# Type in all cases: in vivo
# Details in all cases: 15 gai/hL
# [1] = system: glasshouse whitefly (Trialeurodes vaporariorum); assay: Whitefly ovicide curative test
# Method: (§1) The aim of this study was to determine the efficacy of the compositions of the invention on separate life stages of the glasshouse whitefly (Trialeurodes vaporariorum). Three studies were undertaken, the first to determine the efficacy of the composition of the invention as an ovicide in both protectant and curative treatments. The following composition (Composition B) was prepared: All treatments were applied to tobacco plants (var. Tobacco nicotiana) using a hand-held atomiser (CEME-984), applied to both surfaces of the leaf, to incipient run-off. The composition was applied at 5000, 1000, 200, 100 and 50 mL product/hL, Imidacloprid (reference item) was applied at 15 gai/hL and controls were sprayed with deionised water only. Three replicate plants were sprayed for each treatment. The treated plants were maintained in a controlled environment room at 22.9-34.4° C., with lighting on a 16 h light/8 h dark cycle. Light intensity was recorded as 870-1464 lux. Relative humidity was recorded as being between 25.1-85.2%. For the ovicide test, plants were treated (both infested and uninfested with eggs). For the curative test, leaf discs were taken and egg numbers counted. For the protectant test, treated plants were infested after treatment then leaf discs taken with known numbers of eggs. […]
# [2] = system: glasshouse whitefly (Trialeurodes vaporariorum); assay: Whitefly nymph curative test
# Excerpt: The aim of this study was to determine the efficacy of the compositions of the invention on separate life stages of the glasshouse whitefly (Trialeurodes vaporariorum).
# A second test was to determine the efficacy of composition B as a curative treatment against whitefly nymphs and the third test was to determine the effects of the composition as a (repellent) protectant spray against whitefly adults.
# All treatments were applied to tobacco plants (var. Tobacco nicotiana) using a hand-held atomiser (CEME-984), applied to both surfaces of the leaf, to incipient run-off. The composition was applied at 5000, 1000, 200, 100 and 50 mL product/hL, Imidacloprid (reference item) was applied at 15 gai/hL and controls were sprayed with deionised water only.
# Three replicate plants were sprayed for each treatment. The treated plants were maintained in a controlled environment room at 22.9-34.4° C., with lighting on a 16 h light/8 h dark cycle. Light intensity was recorded as 870-1464 lux. Relative humidity was recorded as being between 25.1-85.2%.
# For the curative nymph test, leaves with nymphs 7-12 days old were treated and assessments of mortality made at 4, 7 and 10 days after application.
# [3] = system: glasshouse whitefly (Trialeurodes vaporariorum); assay: Whitefly ovicide protectant test
# Method: as §1
# [4] = system: glasshouse whitefly (Trialeurodes vaporariorum); assay: Whitefly adult repellence (protectant) test
# Excerpt: The aim of this study was to determine the efficacy of the compositions of the invention on separate life stages of the glasshouse whitefly (Trialeurodes vaporariorum). A second test was to determine the efficacy of composition B as a curative treatment against whitefly nymphs and the third test was to determine the effects of the composition as a (repellent) protectant spray against whitefly adults. All treatments were applied to tobacco plants (var. Tobacco nicotiana) using a hand-held atomiser (CEME-984), applied to both surfaces of the leaf, to incipient run-off. The composition was applied at 5000, 1000, 200, 100 and 50 mL product/hL, Imidacloprid (reference item) was applied at 15 gai/hL and controls were sprayed with deionised water only. Three replicate plants were sprayed for each treatment. The treated plants were maintained in a controlled environment room at 22.9-34.4° C., with lighting on a 16 h light/8 h dark cycle. Light intensity was recorded as 870-1464 lux. Relative humidity was recorded as being between 25.1-85.2%. The adult protectant test, assessed the numbers of alive adults on treated leaves after immersion in an adult whitefly infested chamber, 15 and 18 days after application.
smiles,measurement,setting,value
O=[N+]([O-])NC1=NCCN1Cc1ccc(Cl)nc1 [Imidacloprid],percentage whitefly egg hatch,[1]; 1 DAA,0.0%
same,percentage whitefly egg hatch,[1]; 3 DAA,75.2%
same,percentage whitefly egg hatch,[1]; 7 DAA,91.4%
same,percentage whitefly nymph mortality,[2]; 4 DAA,100.0%
same,percentage whitefly nymph mortality,[2]; 7 DAA,100.0%
same,percentage whitefly nymph mortality,[2]; 10 DAA,100.0%
same,percentage whitefly egg hatch,[3]; 1 DAA,0.0%
same,percentage whitefly egg hatch,[3]; 3 DAA,0.0%
same,percentage whitefly egg hatch,[3]; 7 DAA,0.0%
same,number of adult whitefly per leaf,[4]; 15 DAA,0
same,number of adult whitefly per leaf,[4]; 18 DAA,0
